Data from US8383608B2, “Imidazolidine compounds as androgen receptor modulators” (Dart Therapeutics LLC, priority 2008, dated 2013).
Like-named read-outs stand apart in the source and are kept apart here.

Experiments:
[1] = target: T1, human androgen receptor (hAR) (Homo sapiens, UniProt P10275); assay: Functional response (transactivation) test in HALP2 cells (HeLa stably expressing hAR and ARE-luciferase reporter); format: cell-based; conditions: for Emax: HeLa, read-out: % effect relative to DHT (100%)
T1 construct: expressed in transfected cells
T1 sequence (P10275 1-920): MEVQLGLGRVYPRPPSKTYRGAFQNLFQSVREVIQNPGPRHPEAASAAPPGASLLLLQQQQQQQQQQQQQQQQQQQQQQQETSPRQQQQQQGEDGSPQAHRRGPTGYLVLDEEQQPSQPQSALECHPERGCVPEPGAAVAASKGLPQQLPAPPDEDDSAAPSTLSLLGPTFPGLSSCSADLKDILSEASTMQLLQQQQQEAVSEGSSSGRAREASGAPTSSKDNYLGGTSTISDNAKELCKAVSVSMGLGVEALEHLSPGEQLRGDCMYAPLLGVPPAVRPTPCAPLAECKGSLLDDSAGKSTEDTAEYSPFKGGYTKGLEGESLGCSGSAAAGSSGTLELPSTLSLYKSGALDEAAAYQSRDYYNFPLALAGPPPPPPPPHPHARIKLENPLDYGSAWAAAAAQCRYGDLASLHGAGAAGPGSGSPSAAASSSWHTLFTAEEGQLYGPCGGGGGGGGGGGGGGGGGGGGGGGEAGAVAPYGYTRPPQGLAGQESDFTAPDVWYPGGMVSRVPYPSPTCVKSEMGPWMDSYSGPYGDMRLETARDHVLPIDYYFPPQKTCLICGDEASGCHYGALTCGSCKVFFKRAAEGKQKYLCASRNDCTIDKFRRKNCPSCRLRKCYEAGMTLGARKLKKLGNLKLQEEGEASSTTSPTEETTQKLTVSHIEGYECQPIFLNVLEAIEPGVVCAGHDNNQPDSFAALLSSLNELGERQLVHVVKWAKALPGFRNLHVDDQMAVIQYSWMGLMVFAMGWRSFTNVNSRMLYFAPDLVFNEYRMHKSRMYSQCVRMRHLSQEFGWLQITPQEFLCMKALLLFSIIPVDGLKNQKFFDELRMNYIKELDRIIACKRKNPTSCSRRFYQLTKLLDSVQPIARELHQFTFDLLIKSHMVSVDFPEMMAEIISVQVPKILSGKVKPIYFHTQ
Text: This test constitutes a method of identifying pure or partial agonists which mimic the effects of natural hormones, such as DHT (dihydrotestosterone) in the present case or, on the other hand, antagonists which inhibit them.
For this transactivation test, plasmids encoding a reporter gene and the human androgen receptor (hAR) are introduced together by transfection into the HeLa cell line. The reporter plasmid contains luciferase cDNA under the control of the AREs contained in the promoter sequences of the probasin gene (3xpbAREminicoll-luciferase/pGL3-puro). The expression of the reporter gene constitutes an indication of the transcriptional activity of hAR. It also encodes a protein allowing the cells expressing it to resist a treatment with puromycin. The plasmid encoding hAR contains the cDNA of hAR under the control of the Cytomegalovirus (CMV) promoter. It also encodes a protein allowing the cells expressing it to resist a treatment with neomycin. The treatment of cells with increasing amounts of potentially agonistic compounds will increase the expression of the reporter gene. To detect antagonists, on the other hand, increasing doses of test compounds are tested in the presence of […] of DHT. The expression of the reporter gene, which is constant for each dose of DHT, decreases when the concentration of the test compounds increases.
The functional response test is conducted on 96-well plates. The HALP2 cells are seeded (20,000 cells per well) in culture medium (DMEM with phenol red, 1% de Pen-Strep, 1% of non-essential amino acids, 10% of fetal bovine serum, 400 μg/mL Geneticin and 0.150 puromycin) on day 1. After 24 hours incubating at 37° C., 5% CO2, high humidity (day 2) the medium is removed and refreshed with test medium (DMEM without phenol red supplemented, 1% de Pen-Strep, 1% of non-essential amino acids and 5% of desteroidised foetal bovine serum). After another 24 hours incubating at 37° C., 5% CO2, high humidity (day 3), the medium is renewed once more before the phase of stimulation.
The cells are placed in contact with the compounds for 24 hours at 37° C., 5% CO2, high humidity. On day 4 the medium is then removed and the luciferase activity reading reagent is placed in contact with the cells in accordance with the manufacturer's instructions (SteadyLite, Perkin-Elmer). The luminescence produced is detected on an Envision reader (Perkin-Elmer). […]
The determination of the relative agonism/antagonism of a compound is obtained by comparing the maximal activation obtained with said compound and the activation obtained with DHT alone (100%).

[2] = Determination of absolute bioavailability (restricted PK profile, oral and intravenous); format: in vivo; conditions: absolute bioavailability (F), male Sprague Dawley rats, oral 10 mg/kg AUC(0-6 h) vs intravenous 3 mg/kg AUC(0-3 h)
Description: To screen rapidly imidazolidines derivatives based on their absolute bioavailabity, restricted pharmacokinetic profile with only fours sampling time points after oral and intravenous route is investigated in Sprague Dawley rats as follows: each test compound is dosed orally (10 mg/kg) and intravenously (3 mg/kg) to groups of 3 male Sprague Dawley rats. Oral doses are administered as solution in EtOH/PEG400/H2O (1/79/20; v/v) by esophageal gavage (2 mg/mL; 5 mL/kg) and intravenous dose is given as solution in DMSO/PEG400/H2O (1/65/34; v/v) as a bolus in the tail vein (3 mg/mL; 1 mL/kg). Before oral dosing, animals are deprived of food (water ad libitum) for at least 16 hours before the start of the study and 6 hours after administration.
Blood is collected at the retro-orbital sinus into polypropylene tubes (Li-heparinate) at +4° C. at the following sampling-times: 0.083, 0.25, 1 and 3 h after intravenous injection and 0.25, 1, 3 and 6 hours after oral dosing. Three (3) animals are sampled per time-point; each animal being sampled four times. After centrifugation at 5000 rpm for 10 min at +4° C., plasma is collected into polypropylene tubes and kept frozen at −20° C. pending assays. Plasma samples are assayed by a LC-MS/MS method with a lower limit of quantification of 1 to 10 ng/mL depending on the compound (volume of plasma: 100 μL).
A LC-MS/MS method for quantification in heparinized plasma was developed for each test compound. Sample preparation consists of a precipitation of plasma proteins with methanol and filtration by centrifugation of supernatant on Captiva deep-well 96 0.2 μm filter plates. Water was added to methanol supernatant phase prior to analysis by liquid chromatography (Pursuit 5 C18 20×2.0 mm VARIAN, 2 μL loop, gradient Water/Methanol (90/10 to 0/100) over 1.7 min) with turboionspray tandem mass spectrometry (API4000) in negative mode using multiple reaction monitoring. The method includes 8 standard and 3 quality control levels with lower limit of quantification corresponding to first standard level.
Exposures are determined using a non compartmental model (WinNonLin 2.1) and the absolute bioavailability (F) is calculated as follows: [AUC(0-6 h) oral*3 mg/kg]/AUC(0-3 h) IV 10 mg/kg] and expressed in percentage.

[3] = test system: castrated immature young rats; assay: Adapted model of Hershberger's test; format: in vivo, Sprague Dawley rats; conditions: Rattus norvegicus, po, 96 h, ORX control = 0%, SHAM control = 100%, per os daily for 4 days, dose tested 10 mg/kg
Description: The selective modulating activity of the androgen receptor is tested in a model of castrated immature young rats. This model, which is widely recognised for evaluating the anabolic effects of androgen compounds on the muscles and on the prostate, has been described by Hershberger et al. 1953 Proc. Soc. Expt. Biol. Med. 83:175.
The method is based on the measurement of the well-known effects of androgens on the growth of the muscles and the accessory male sex organs in animals, and also in men. The consequences of castration appear in the form of a rapid involution and atrophy of the prostate and the seminal vesicles and of the anus-lifting muscle (levator ani). This effect may be completely compensated by an exogeneous administration of androgen, in particular of testosterone. The model is thus used to determine the capacity of the tested molecules to maintain the weight of the accessory sex and muscle organs in immature castrated rats, and therefore their androgenic efficacy.
Immature young Sprague Dawley rats (4 to 5 weeks old) weighing approximately 140-160 g (Charles River, Les Oncins, FRANCE) are distributed randomly in various groups and are kept in an environment at 22±2° C. with an alternating day/night cycle of 12 hours and ad libitum access to food and drink.
On day 0 (seven days before commencement of the first treatment) the rats are weighed individually then anaesthetised with an intraperitoneal dose of Ketamine/xylazine (85/15 mg/kg, approximately 2 ml/kg). Each animal is then placed on a sterile field and the abdomen and the scrotum are disinfected with Betadine and 70% alcohol. In the case of the orchidectomised control animals (ORX), the testicles are removed via an incision in the middle of the scrotum. A sterile suture is then made to ligature the supra-testicular portion of the tissue prior to surgical section of each testicle. The groups of animals to be treated by the tested compounds are operated on in an identical manner. In the case of the intact control animals (SHAM), the testicles are similarly extracted and reintroduced delicately to their original location. The site of surgical intervention is then sutured using sterile suture thread, and the site is disinfected again by application of Betadine. Each animal is then kept under a sterile pad until it awoke, before being returned to its cage. The animals are kept in an environment at 22±2° C. with an alternating day/night cycle of 12 hours and ad libitum access to food and drink. The animals are treated with the molecules to be tested from post-surgery day 7 and until day 10 preceding sacrifice (day 11).
The rats are split into groups and treated daily from day 7 to day 10 under the conditions defined below: • 1. SHAM control group: Vehicle (PEG400/DMSO/water; 79/1/20) administered per os. • 2. ORX control group: Vehicle (PEG400/DMSO/water; 79/1/20) administered per os. • 3. Treated ORX group: The tested compounds are administered individually per os in suspension in the vehicle described above, in a dose of 10 mg/kg.
After treatment for 4 successive days, the animals are decapitated using a guillotine. The levator ani and the ventral prostate are removed and weighed individually. For comparing inter-experimental data, the weight of each organ is standardised and expressed in milligrammes per 100 g of the weight of the animal (W). For each organ, the average of the standardised weights of the ORX control group is fixed by definition at 0% and the average of the standardised weights of the SHAM control group is fixed by definition at 100%. The efficacy of each product is expressed as a percentage and calculated using the following formula: (Wtreated−WORX)/(WSHAM−WORX)×100
A subsequent ANOVA test is used for statistical analysis to identify the differences between groups.

[4] = maximal activation by the compound compared with DHT alone (100%), HALP2 cells
[5] = agonism: concentration inducing 50% of the maximum agonistic effect of the tested compound, HALP2 cells, 24 hours, read-out: EC50
[6] = male, Sprague-Dawley, rat, plasma, po, 10 mg/kg, read-out: Bioavailability

SMILES	Emax [1, 4]	bioavailability [2]	EC50 [1, 5]	bioavailability [2, 6]	further results
CC(O)C1(c2ccccc2)C(=O)N(c2ccc(C#N)c(C(F)(F)F)c2)C(=O)N1C (single isomer, unassigned) [Example 4, 4-[2,5-Dioxo-4-(1-hydroxyethyl)-3-methyl-4-phenylimidazolidin-1-yl]-2-trifluoromethylbenzonitrile]	0 to 5%	# (0-49%)	–	–	–
CN1C(=O)N(c2ccc(C#N)c(C(F)(F)F)c2)C(=O)C1(CO)c1ccccc1 (stereo not drawn) [Example 1, 4-[2,5-Dioxo-4-(hydroxymethyl)-3-methyl-4-phenylimidazolidin-1-yl]-2-trifluoromethylbenzonitrile]	21 to 40%	–	0.01 to 10 nM	50 to 90%	–
CCC(O)C1(c2ccccc2)C(=O)N(c2ccc(C#N)c(C(F)(F)F)c2)C(=O)N1C (single isomer, unassigned) [Example 3, 4-[2,5-Dioxo-4-(1-hydroxypropyl)-3-methyl-4-phenylimidazolidin-1-yl]-2-trifluoromethylbenzonitrile]	–	–	–	50 to 90%	–
C#CCN1C(=O)N(c2ccc(C#N)c(C(F)(F)F)c2)C(=O)C1(CO)c1ccc(F)cc1 (stereo not drawn) [Example 8, 4-[2,5-Dioxo-4-(4-fluorophenyl)-4-hydroxymethyl-3-(2-propynyl)imidazolidin-1-yl]-2-trifluoromethylbenzonitrile]	–	–	–	> 90%	EC50 [1]: 101 to 500 nM; Emax [1]: 6 to 20%
CC(O)C1(c2ccccc2)C(=O)N(c2ccc(C#N)c(C(F)(F)F)c2)C(=O)N1C (single isomer, unassigned) [Example 5, 4-[2,5-Dioxo-4-(1-hydroxyethyl)-3-methyl-4-phenylimidazolidin-1-yl]-2-trifluoromethylbenzonitrile]	–	### (>90%:)	–	–	% effect relative to DHT (100%) [1, 4]: § (0-5%)
CN1C(=O)N(c2ccc(C#N)c(C(F)(F)F)c2)C(=O)C1(CO)c1cccc(C(F)(F)F)c1 (stereo not drawn) [Example 15, 4-[2,5-Dioxo-4-hydroxymethyl-3-methyl-4-(3-trifluoromethylphenyl)imidazolidin-1-yl)-2-trifluoromethylbenzonitrile]	21 to 40%	–	101 to 500 nM	–	response vs control in vivo at 10 mg/kg ([3]; levator ani weight, read-out: Anabolic activity %): 25 to 50%; response vs control in vivo at 10 mg/kg ([3]; ventral prostate weight, read-out: Androgenic activity % (Prostate)): 0%
